Source: article PMC6934184, “Selective DNA-PKcs inhibition extends the therapeutic index of localized radiotherapy and chemotherapy” (The Journal of Clinical Investigation, 2019)

Target: T1, NLK (Homo sapiens, UniProt Q9UBE8)
T1 construct: purchased Thermo Fisher Scientific (Life Technologies) SelectScreen
Assay: SelectScreen LanthaScreen
Format: binding
Conditions: read-out: % displacement
Method in brief: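 NU5455 was profiled across the SelectScreen Broad panel of kinase activity and binding assays. Z'LYTE reactions such as CSF1R ran at apparent Km ATP, while the Adapta CAMK1 assay used ATP listed as 10. Values are given as percent.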

T1 sequence (Q9UBE8 whole entry): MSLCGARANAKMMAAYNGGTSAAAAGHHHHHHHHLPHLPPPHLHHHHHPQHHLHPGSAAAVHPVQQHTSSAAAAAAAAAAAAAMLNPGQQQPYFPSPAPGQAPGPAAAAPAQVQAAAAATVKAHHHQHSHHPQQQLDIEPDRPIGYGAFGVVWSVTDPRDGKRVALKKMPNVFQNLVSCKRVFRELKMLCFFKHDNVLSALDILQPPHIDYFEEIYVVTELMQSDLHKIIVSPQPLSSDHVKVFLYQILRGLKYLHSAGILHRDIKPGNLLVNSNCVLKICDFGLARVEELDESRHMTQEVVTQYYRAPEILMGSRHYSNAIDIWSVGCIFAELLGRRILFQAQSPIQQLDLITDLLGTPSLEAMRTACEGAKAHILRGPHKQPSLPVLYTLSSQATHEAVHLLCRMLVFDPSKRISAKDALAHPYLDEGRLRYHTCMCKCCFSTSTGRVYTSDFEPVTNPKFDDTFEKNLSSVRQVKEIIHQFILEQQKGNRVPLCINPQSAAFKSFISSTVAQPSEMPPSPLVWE

CN(C(=O)CN1CCOCC1)c1ccc2sc3c(-c4cccc5c(=O)cc(N6CC7CCC(C6)O7)oc45)cccc3c2c1 [NU5455]
inhibition at 1 µM: 4.7%
